Numbers after ± are expanded uncertainties.
Test: activity coefficient (dimensionless); of the first substance listed, at infinite dilution; xn = mol fraction of the nth substance listed
Settings: 101 kPa, Liquid, Chromatography, x1 = 0

| Structure (SMILES) | activity coefficient (318.15 K) | activity coefficient (328.15 K) | activity coefficient (338.15 K) | activity coefficient (348.15 K) | activity coefficient (358.15 K) | activity coefficient (368.15 K) | activity coefficient (378.15 K) | activity coefficient (308.15 K) |
| --- | --- | --- | --- | --- | --- | --- | --- | --- |
| CO [methanol] + O=S(=O)([N-]S(=O)(=O)C(F)(F)F)C(F)(F)F.OCCC[n+]1ccccc1 | 0.87 ± 0.056 | 0.836 ± 0.054 | 0.804 ± 0.052 | 0.776 ± 0.051 | 0.749 ± 0.049 | 0.725 ± 0.048 | 0.703 ± 0.047 | – |
| Cc1ccccc1 [toluene] + O=S(=O)([N-]S(=O)(=O)C(F)(F)F)C(F)(F)F.OCCC[n+]1ccccc1 | 2.36 ± 0.16 | 2.37 ± 0.16 | 2.38 ± 0.16 | 2.39 ± 0.16 | 2.4 ± 0.16 | 2.41 ± 0.16 | 2.42 ± 0.16 | – |
| c1ccccc1 [benzene] + O=S(=O)([N-]S(=O)(=O)C(F)(F)F)C(F)(F)F.OCCC[n+]1ccccc1 | 1.58 ± 0.1 | 1.58 ± 0.1 | 1.59 ± 0.11 | 1.6 ± 0.11 | 1.61 ± 0.11 | 1.62 ± 0.11 | 1.62 ± 0.11 | – |
| COC(C)(C)C [2-methoxy-2-methylpropane] + O=S(=O)([N-]S(=O)(=O)C(F)(F)F)C(F)(F)F.OCCC[n+]1ccccc1 | 2.74 ± 0.19 | 2.83 ± 0.19 | 2.91 ± 0.2 | 3.01 ± 0.2 | 3.08 ± 0.21 | 3.18 ± 0.22 | – | 2.63 ± 0.18 |
| CCCCCC [hexane] + O=S(=O)([N-]S(=O)(=O)C(F)(F)F)C(F)(F)F.OCCC[n+]1ccccc1 | 46.7 ± 3.2 | 42.3 ± 2.9 | 38.5 ± 2.6 | 35.6 ± 2.4 | 32.8 ± 2.2 | – | – | 51.3 ± 3.5 |
| CCCCCCC [heptane] + O=S(=O)([N-]S(=O)(=O)C(F)(F)F)C(F)(F)F.OCCC[n+]1ccccc1 | 73.8 ± 5.1 | 66.2 ± 4.5 | 59.3 ± 4.1 | 54.3 ± 3.7 | 49.4 ± 3.4 | 45.8 ± 3.1 | – | 82 ± 5.6 |
| C1CCCCCCC1 [cyclooctane] + O=S(=O)([N-]S(=O)(=O)C(F)(F)F)C(F)(F)F.OCCC[n+]1ccccc1 | 46.4 ± 3.2 | 41.6 ± 2.8 | 37.3 ± 2.6 | 34 ± 2.3 | 31.3 ± 2.1 | 28.6 ± 2 | – | 51.9 ± 3.6 |
| CC(=O)O [acetic acid] + O=S(=O)([N-]S(=O)(=O)C(F)(F)F)C(F)(F)F.OCCC[n+]1ccccc1 | 0.255 ± 0.03 | 0.277 ± 0.03 | 0.298 ± 0.031 | 0.32 ± 0.031 | 0.343 ± 0.032 | 0.367 ± 0.033 | 0.388 ± 0.034 | – |
| C=CCCCCCC [oct-1-ene] + O=S(=O)([N-]S(=O)(=O)C(F)(F)F)C(F)(F)F.OCCC[n+]1ccccc1 | 53 ± 3.6 | 48.5 ± 3.3 | 44.4 ± 3 | 41.1 ± 2.8 | 38.1 ± 2.6 | 35.6 ± 2.4 | – | 58 ± 4 |
| CCCCO [butan-1-ol] + O=S(=O)([N-]S(=O)(=O)C(F)(F)F)C(F)(F)F.OCCC[n+]1ccccc1 | 2.27 ± 0.15 | 2.14 ± 0.15 | 2.02 ± 0.14 | 1.91 ± 0.13 | 1.82 ± 0.12 | 1.73 ± 0.12 | 1.67 ± 0.11 | – |
| CCCCC [pentane] + O=S(=O)([N-]S(=O)(=O)C(F)(F)F)C(F)(F)F.OCCC[n+]1ccccc1 | 30.2 ± 2.1 | 27.9 ± 1.9 | 25.8 ± 1.8 | 24.3 ± 1.7 | – | – | – | 32.9 ± 2.3 |
| CCC(C)CC [3-methylpentane] + O=S(=O)([N-]S(=O)(=O)C(F)(F)F)C(F)(F)F.OCCC[n+]1ccccc1 | 40 ± 2.7 | 36.6 ± 2.5 | 33.3 ± 2.3 | 30.9 ± 2.1 | 28.5 ± 1.9 | – | – | 44 ± 3 |
| C1CCCCCC1 [cycloheptane] + O=S(=O)([N-]S(=O)(=O)C(F)(F)F)C(F)(F)F.OCCC[n+]1ccccc1 | 32.8 ± 2.2 | 29.7 ± 2 | 26.9 ± 1.8 | 24.7 ± 1.7 | 22.9 ± 1.6 | 21.2 ± 1.4 | – | 36.3 ± 2.5 |
| CC(C)=O [acetone] + O=S(=O)([N-]S(=O)(=O)C(F)(F)F)C(F)(F)F.OCCC[n+]1ccccc1 | 0.403 ± 0.034 | 0.421 ± 0.035 | 0.437 ± 0.035 | 0.453 ± 0.036 | 0.469 ± 0.037 | 0.484 ± 0.037 | 0.5 ± 0.038 | – |
| C#CCCCCC [1-heptyne] + O=S(=O)([N-]S(=O)(=O)C(F)(F)F)C(F)(F)F.OCCC[n+]1ccccc1 | 9.81 ± 0.67 | 9.53 ± 0.65 | 9.21 ± 0.63 | 9 ± 0.61 | 8.74 ± 0.6 | 8.55 ± 0.58 | – | 10.1 ± 0.7 |
| C=CCCC [1-pentene] + O=S(=O)([N-]S(=O)(=O)C(F)(F)F)C(F)(F)F.OCCC[n+]1ccccc1 | 13.5 ± 0.9 | 12.7 ± 0.9 | 12 ± 0.8 | 11.5 ± 0.8 | – | – | – | 14.2 ± 1 |
| CC1CCCCC1 [methylcyclohexane] + O=S(=O)([N-]S(=O)(=O)C(F)(F)F)C(F)(F)F.OCCC[n+]1ccccc1 | 35.2 ± 2.4 | 31.9 ± 2.2 | 29 ± 2 | 26.8 ± 1.8 | 24.7 ± 1.7 | 22.9 ± 1.6 | – | 38.7 ± 2.6 |
| CCCO [propan-1-ol] + O=S(=O)([N-]S(=O)(=O)C(F)(F)F)C(F)(F)F.OCCC[n+]1ccccc1 | 1.6 ± 0.11 | 1.52 ± 0.1 | 1.46 ± 0.1 | 1.39 ± 0.09 | 1.34 ± 0.09 | 1.28 ± 0.08 | 1.24 ± 0.08 | – |
| C=CCCCCC [1-heptene] + O=S(=O)([N-]S(=O)(=O)C(F)(F)F)C(F)(F)F.OCCC[n+]1ccccc1 | 33.1 ± 2.3 | 30.7 ± 2.1 | 28.5 ± 1.9 | 26.7 ± 1.8 | 25.2 ± 1.7 | 23.7 ± 1.6 | – | 35.7 ± 2.4 |
| CCCCCCCCC [nonane] + O=S(=O)([N-]S(=O)(=O)C(F)(F)F)C(F)(F)F.OCCC[n+]1ccccc1 | 181 ± 12 | 157 ± 11 | 139 ± 10 | 125 ± 9 | 111 ± 8 | 99.7 ± 6.8 | – | 206 ± 14 |
| C1CCCCC1 [cyclohexane] + O=S(=O)([N-]S(=O)(=O)C(F)(F)F)C(F)(F)F.OCCC[n+]1ccccc1 | 23.2 ± 1.6 | 21.1 ± 1.4 | 19.4 ± 1.3 | 17.9 ± 1.2 | 16.7 ± 1.1 | 15.5 ± 1.1 | – | 25.5 ± 1.7 |
| CCCC(C)=O [pentan-2-one] + O=S(=O)([N-]S(=O)(=O)C(F)(F)F)C(F)(F)F.OCCC[n+]1ccccc1 | 0.885 ± 0.056 | 0.91 ± 0.058 | 0.937 ± 0.059 | 0.96 ± 0.06 | 0.984 ± 0.062 | 1.01 ± 0.06 | 1.03 ± 0.06 | – |
| CCCCCCCCCC [decane] + O=S(=O)([N-]S(=O)(=O)C(F)(F)F)C(F)(F)F.OCCC[n+]1ccccc1 | 284 ± 20 | 245 ± 17 | 214 ± 15 | 190 ± 13 | 168 ± 12 | 150 ± 10 | – | 327 ± 22 |
| c1ccsc1 [thiophene] + O=S(=O)([N-]S(=O)(=O)C(F)(F)F)C(F)(F)F.OCCC[n+]1ccccc1 | 1.27 ± 0.08 | 1.28 ± 0.08 | 1.29 ± 0.08 | 1.29 ± 0.08 | 1.3 ± 0.08 | 1.31 ± 0.09 | 1.31 ± 0.09 | – |
| CC(C)CC(C)(C)C [2,2,4-trimethylpentane] + O=S(=O)([N-]S(=O)(=O)C(F)(F)F)C(F)(F)F.OCCC[n+]1ccccc1 | 73.9 ± 5.1 | 67 ± 4.6 | 60.7 ± 4.2 | 55.7 ± 3.8 | 51.4 ± 3.5 | 47.3 ± 3.2 | – | 81.7 ± 5.6 |
| CCC(=O)CC [pentan-3-one] + O=S(=O)([N-]S(=O)(=O)C(F)(F)F)C(F)(F)F.OCCC[n+]1ccccc1 | 0.936 ± 0.059 | 0.963 ± 0.061 | 0.991 ± 0.062 | 1.02 ± 0.06 | 1.04 ± 0.07 | 1.07 ± 0.07 | 1.09 ± 0.07 | – |
| C1COCCO1 [1,4-dioxane] + O=S(=O)([N-]S(=O)(=O)C(F)(F)F)C(F)(F)F.OCCC[n+]1ccccc1 | 0.514 ± 0.038 | 0.541 ± 0.04 | 0.568 ± 0.041 | 0.595 ± 0.042 | 0.621 ± 0.043 | 0.647 ± 0.044 | 0.672 ± 0.046 | – |
| C#CCCCC [1-hexyne] + O=S(=O)([N-]S(=O)(=O)C(F)(F)F)C(F)(F)F.OCCC[n+]1ccccc1 | 6.25 ± 0.43 | 6.13 ± 0.42 | 6 ± 0.41 | 5.91 ± 0.4 | 5.8 ± 0.4 | 5.72 ± 0.39 | – | 6.38 ± 0.43 |
| C1=CCCCC1 [cyclohexene] + O=S(=O)([N-]S(=O)(=O)C(F)(F)F)C(F)(F)F.OCCC[n+]1ccccc1 | 11 ± 0.8 | 10.4 ± 0.7 | 9.81 ± 0.67 | 9.31 ± 0.64 | 8.92 ± 0.61 | 8.52 ± 0.58 | – | 11.7 ± 0.8 |
